Data set [1] has as its system rhythmic bladder voiding contractions. The experiment in a line: Volume-induced rhythmic bladder voiding contractions in anaesthetized rats. Format: in vivo, rat. To be noted: for Bladder quiescence (min ± S.E.): 60 min observation; for ED10 min (dose inducing a 10 min absence of bladder contractions) / Potency in inhibiting bladder voiding contractions (ED10min) compared with morphine: i.v.; for ED10 min (dose inducing a 10 min absence of bladder contractions): linear regression analysis; for Potency in inhibiting bladder voiding contractions (ED10min) compared with morphine: relative to morphine.
Protocol: In this method, the urinary bladder is catheterized through the external urethra with a polyethylene tubing filled with physiological saline. The external urethra is then ligated and connected to a pressure recording device. […] Test compounds are then administered intravenously and their effect evaluated for the following 60 min.
The animals were housed with free access to food and water and maintained on a 12 h alternating light-dark cycle at 22-24° C. for at least one week, except during the experiment. […] The catheter was then tied in place with a ligature around the external urethral orifice and connected to a conventional pressure transducer (Statham P23 ID/P23 XL). […] The bladder was then filled via the recording catheter with incremental volumes of warm (37° C.) saline until reflex bladder voiding contractions occurred (usually upon addition of 0.8-1.5 ml saline).
Bioactivity was assessed in individual animals (using 6-10 rats per dose) by measuring the duration of bladder quiescence (i.e., the duration of time during which no contractions occurred) over a 60 min period.

Data set [2] has as its system detrusor instability. To be noted: cited from earlier work; for Effect in patients with detrusor instability: double-blind controlled studies; for Gastrointestinal side effects: patients with detrusor instability.
The subject of data set [3] is bladder reflexes. As to conditions: following surgery or experimentally-induced inflammation; cited from earlier work.
The subject of data set [4] is bladder contractions elicited by arachidonic acid. As to conditions: arachidonic acid on serosal surface of bladder; cited from earlier work.
For data set [5], the system named is isolated rat bladder strips. As to conditions: 1×10^−4M, 40 mM potassium; cited from earlier work.

In the case of `Cc1ccc(-c2cc(C(F)(F)F)nn2-c2ccc(S(N)(=O)=O)cc2)cc1` [Compound B], the “Bladder quiescence (min ± S.E.)” value worked out at 4.05 ± 0.68 min in data set [1] (0.01 mg/kg i.v.), 10.53 ± 2.04 min in data set [1] (0.1 mg/kg i.v.) and 28.35 ± 5.19 min in data set [1] (1.0 mg/kg i.v.). In addition, the “ED10 min (dose inducing a 10 min absence of bladder contractions)” value (from here on “ED10 min”) in data set [1] is listed as “ED10 min = 0.044 mg/kg”. For the same compound, in data set [1], the “Potency in inhibiting bladder voiding contractions (ED10min) compared with morphine” value is reported as “similar”.

Turning to `CS(=O)(=O)c1ccc(C2=C(c3ccccc3)C(=O)OC2)cc1` [Compound C], the “Bladder quiescence (min ± S.E.)” value in data set [1] (0.03 mg/kg i.v.) was 3.75 ± 0.96 min; in data set [1] (0.1 mg/kg i.v.), 4.85 ± 1.80 min; in data set [1] (0.3 mg/kg i.v.) it was 16.44 ± 6.13 min. Moreover, in data set [1], the “ED10 min” value is given as “ED10 min = 0.135 mg/kg”. In addition, the “Potency in inhibiting bladder voiding contractions (ED10min) compared with morphine” value in data set [1] is “slightly lower”.

On to `COc1ccc2c(c1)c(CC(=O)O)c(C)n2C(=O)c1ccc(Cl)cc1` [Indomethacin], for which the “Effect in patients with detrusor instability” value in data set [2] is “favorable effects”. In addition, in data set [2], the Gastrointestinal side effects result is on record as “high incidence of gastrointestinal side effects”. The “Bladder quiescence (min ± S.E.)” value was 4.39 ± 1.08 min in data set [1] (0.3 mg/kg i.v.), 7.91 ± 1.79 min in data set [1] (1.0 mg/kg i.v.) and 35.00 ± 5.78 min in data set [1] (3.0 mg/kg i.v.). For the same compound, the “ED10 min” value in data set [1] was “ED10 min = 0.652 mg/kg”.

On to `CN1CC[C@]23c4c5ccc(O)c4O[C@H]2[C@@H](O)C=C[C@H]3[C@H]1C5` [Morphine], for which the “Bladder quiescence (min ± S.E.)” value in data set [1] (0.01 mg/kg i.v.) is 2.76 ± 0.93 min; in data set [1] (0.03 mg/kg i.v.) it was 6.89 ± 2.11 min; in data set [1] (0.1 mg/kg i.v.), 13.83 ± 2.40 min; in data set [1] (0.3 mg/kg i.v.), 18.17 ± 3.60 min. Besides, the “ED10 min” value in data set [1] was “ED10 min = 0.050 mg/kg”.

For the compound `CS(=O)(=O)Nc1ccc([N+](=O)[O-])cc1OC1CCCCC1` [NS-398], the “Effect on bladder reflexes” value in data set [3] was “normalized bladder reflexes”.

On to `C[C@H](C(=O)O)c1cccc(C(=O)c2ccccc2)c1` [dexketoprofen], for which the “Effect on bladder contractions elicited by arachidonic acid” value in data set [4] is “blocked”.

Take `CC(C(=O)O)c1ccc(-c2ccccc2)c(F)c1` (centres unmarked) [flurbiprofen]: in data set [2], the “Effect in patients with detrusor instability” value is given as “favorable effects” and the Gastrointestinal side effects entry is reported as “high incidence of gastrointestinal side effects”.

Consider `CS(=O)(=O)Nc1ccc([N+](=O)[O-])cc1Oc1ccccc1` [nimesulide], for which the Inhibition of contractility in data set [5] is reported as 42%.
